# Assay results published in patent US7858657B2 (Proix Pharmaceutical Corp., priority 2004, dated 2010).
# pIC50: −log10 of the molar value. Marks after values point to notes of the source that are not given here.
# Assays:
# [1] = Pharmacokinetics of PX-866 in mouse plasma; assay type: in vivo; settings: intravenous, intraperitoneal and oral administration; mouse plasma (FIG. 2)
# [2] = tested on: HT-29 colon; assay: Antitumor activity of wortmannin analogs, HT-29 colon tumor (Table 1); assay type: in vivo; settings: initial tumor vol 170 mm^3, 12 mg/kg/day ip Q1D × 9
# [3] = tested on: OvCaR-3 ovarian; assay: Antitumor activity of cytotoxic drugs alone or combined with PX-866, OvCar-3 ovarian (Table 2); assay type: in vivo; settings: for Alone Growth delay days / Alone TGI % / Alone log cell kill: size 110 mm^3
# [4] = tested on: A-549 lung; assay: Antitumor activity of cytotoxic drugs alone or combined with PX-866, A-549 lung (Table 2); assay type: in vivo
# [5] = tested on: HT-29 colon; assay: Antitumor activity of cytotoxic drugs alone or combined with PX-866, HT-29 colon (Table 2); assay type: in vivo; settings: for Alone Growth delay days / Alone TGI % / Alone log cell kill: size 150 mm^3
# [6] = target: T1, p110α/p85α (Bos taurus, UniProt P32871); assay: Inhibition of recombinant PtdIns-3-kinase, [32P]-ATP dependent phosphorylation of PtdIns; assay type: biochemical, bovine; settings: recombinant enzyme; read-out: IC50, PtdIns-3-kinase p110α/p85α
# T1 construct: purchased Upstate (Charlottesville, Va.)
# Text: Materials and Methods. Compounds. […] Rabbit purified anti-phosphoSer473-Akt antibody, anti-Akt antibody, antiphospho Tyr1086-EGF-receptor antibody and anti-EGFR antibody were obtained from Cell Signaling Technology (Beverly, Mass.). Human recombinant p110α/p85α, p110β/p85α, p120 (and p110*/p85α PtdIns-3-kinases were obtained from Upstate (Charlottesville, Va.). Metformin hydrochloride was obtained from Spectrum Chemical (Gardena, Calif.), pioglitazone hydrochloride and recombinant human insulin from Sigma Chemical (St. Louis).
# Measurement of PtdIns-3-kinase.
# [7] = tested on: tumor phospho-Akt (A-549 tumor xenografts); assay: Pharmacodynamic studies, tumor phospho-Akt in A-549 xenografts; assay type: in vivo, scid mice
# Text: Pharmacodynamic Studies. […] Tumor Akt activity was expressed as the ratio of phospho-Ser473-Akt to total Akt.
# [8] = Toxicity of long term PX-866 administration, scid mice; assay type: in vivo; settings: for ALT: 24 hr after last dose, mean of 4 mice ± SE; for gain in body weight as % of the control weight gain: over the 4 weeks of treatment
# Description: (§1) Toxicity Studies. […] The mice were killed 24 hr after the last dose and changes in body weight, blood lymphocyte, neutrophil, red blood cell, platelet counts, serum glucose, aspartate amino transferase (AST), and amino alanine transferase (ALT) were measured.
# Values are the mean of 4 mice per group±SE.
# [9] = Toxicity studies, blood counts in C57B1/6 mice; assay type: in vivo; settings: PX-866 3 mg/kg po every other day for 15 doses
# Description: as §1
# [10] = Nonfasting glucose levels after long term PX-866; assay type: in vivo, mice; settings: PX-866 9 mg/kg iv every other day for 15 doses; ±S.E., n=4
# [11] = tested on: A-673 thabdomyosarcom xenografts; assay: Antitumor effect of PX-866 with bevacizumab, A-673 xenografts; assay type: in vivo; settings: PX-866 intravenously or orally every three days in combination with bevacizumab (FIG. 14)
# Description: PX-866 was administered at varying doses intravenously or orally every three days alone or in combination with bevacizumab.
# [12] = Glucose tolerance studies; settings: mean ± SE of 4 mice
# Description: Glucose Tolerance Studies. Female C5781/6 mice were fasted overnight and administered a single dose of D(+) glucose (1 mg/kg) as a 0.1 g/ml solution po. […] Human recombinant insulin was administered at 0.075:g/kg ip (26) at the same time as glucose administration.
# Values are the mean±SE of 4 mice per group.
# [13] = PX-866 iv 12 mg/kg Q2D × 5 combined with taxol ip 12 mg/kg Q2D × 5
# [14] = PX-866 po 4 mg/kg Q2D × 5 combined with taxol ip 12 mg/kg Q2D × 5
# [15] = PX-866 ip 6 mg/kg QD × 5 combined with cisplatin ip 1 mg/kg QD × 5
# [16] = size 300 mm^3, PX-866 ip 6 mg/kg QD × 5
# [17] = PX-866 iv 10 mg/kg Q2D × 3 combined with cisplatin ip 2.5 mg/kg Q2D × 3
# [18] = PX-866 po 2.5 mg/kg Q2D × 3 combined with cisplatin ip 2.5 mg/kg Q2D × 3
# [19] = PX-866 1.5 mg/kg po every other day for 14 doses, mean ± SE
# [20] = PX-866 3 mg/kg po every other day for 14 doses, mean ± SE
# [21] = PX-866 10 mg/kg iv every other day for 14 doses, mean ± SE
# T1 sequence (P32871 whole entry): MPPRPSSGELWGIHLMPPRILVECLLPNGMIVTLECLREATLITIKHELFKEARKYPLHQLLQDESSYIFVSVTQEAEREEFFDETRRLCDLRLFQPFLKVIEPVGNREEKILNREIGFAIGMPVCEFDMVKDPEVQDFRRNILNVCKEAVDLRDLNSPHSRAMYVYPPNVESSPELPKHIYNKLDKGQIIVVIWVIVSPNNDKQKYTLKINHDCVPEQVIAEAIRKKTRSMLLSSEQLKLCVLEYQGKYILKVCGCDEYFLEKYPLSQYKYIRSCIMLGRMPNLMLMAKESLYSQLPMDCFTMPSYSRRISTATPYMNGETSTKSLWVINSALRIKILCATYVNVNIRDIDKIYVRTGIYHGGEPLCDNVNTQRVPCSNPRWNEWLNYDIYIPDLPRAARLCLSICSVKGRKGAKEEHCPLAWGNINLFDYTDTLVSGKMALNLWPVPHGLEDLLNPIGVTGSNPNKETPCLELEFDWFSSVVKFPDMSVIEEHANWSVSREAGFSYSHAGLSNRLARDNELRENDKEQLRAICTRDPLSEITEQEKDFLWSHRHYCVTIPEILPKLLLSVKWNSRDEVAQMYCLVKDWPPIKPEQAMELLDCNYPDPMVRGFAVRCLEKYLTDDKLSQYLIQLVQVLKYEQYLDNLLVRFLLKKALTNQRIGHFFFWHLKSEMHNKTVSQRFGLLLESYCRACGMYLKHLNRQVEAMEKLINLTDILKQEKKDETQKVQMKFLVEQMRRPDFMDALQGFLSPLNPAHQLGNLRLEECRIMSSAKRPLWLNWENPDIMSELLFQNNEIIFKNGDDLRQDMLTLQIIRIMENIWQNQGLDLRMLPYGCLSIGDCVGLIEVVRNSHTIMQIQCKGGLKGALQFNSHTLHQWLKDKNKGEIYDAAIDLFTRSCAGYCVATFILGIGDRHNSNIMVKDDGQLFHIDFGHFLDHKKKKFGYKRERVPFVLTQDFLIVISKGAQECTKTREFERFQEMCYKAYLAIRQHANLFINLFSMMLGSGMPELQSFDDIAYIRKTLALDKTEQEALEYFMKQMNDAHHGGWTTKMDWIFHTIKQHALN
# T1 sequence (P23727 2-724 partner): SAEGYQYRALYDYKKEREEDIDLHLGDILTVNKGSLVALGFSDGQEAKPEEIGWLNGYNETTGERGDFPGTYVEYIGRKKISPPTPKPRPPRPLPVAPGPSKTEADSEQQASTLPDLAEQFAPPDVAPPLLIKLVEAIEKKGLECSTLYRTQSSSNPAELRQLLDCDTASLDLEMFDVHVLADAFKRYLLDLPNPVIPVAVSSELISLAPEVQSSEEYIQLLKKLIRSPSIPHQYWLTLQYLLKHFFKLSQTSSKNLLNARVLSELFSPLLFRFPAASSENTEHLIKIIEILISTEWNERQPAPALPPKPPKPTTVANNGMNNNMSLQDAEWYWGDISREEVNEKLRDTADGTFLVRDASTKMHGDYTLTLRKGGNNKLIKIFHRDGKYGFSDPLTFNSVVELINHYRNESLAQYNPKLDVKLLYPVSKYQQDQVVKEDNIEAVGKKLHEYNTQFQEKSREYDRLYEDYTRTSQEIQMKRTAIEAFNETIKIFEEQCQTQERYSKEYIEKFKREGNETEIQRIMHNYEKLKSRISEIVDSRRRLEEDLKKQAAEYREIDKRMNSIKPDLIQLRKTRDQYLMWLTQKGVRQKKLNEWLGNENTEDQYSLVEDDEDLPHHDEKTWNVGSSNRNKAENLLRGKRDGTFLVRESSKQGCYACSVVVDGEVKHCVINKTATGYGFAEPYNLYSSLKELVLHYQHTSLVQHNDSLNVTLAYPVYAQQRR
smiles,measurement,setting,value
C=CCN(/C=C1/C(=O)O[C@H](COC)[C@@]2(C)C1=C(O)C(=O)C1=C2[C@H](OC(C)=O)C[C@]2(C)C(=O)CC[C@@H]12)CC=C [PX-866],half-life,[1],~16 h
same,Growth Delay,[2],6 days
same,Log10 cell kill,[2],0.4
same,T/C % (optimal test/control),[2]; day 16,39 (16) %
same,Combined Growth delay days,[3]; [13],20 days
same,Combined TGI %,[3]; [13],83%
same,Combined log cell kill,[3]; [13],1.5
same,Combined Growth delay days,[3]; [14],34 days
same,Combined TGI %,[3]; [14],87%
same,Combined log cell kill,[3]; [14],2.6
same,Alone Growth delay days,[3]; PX-866 iv 12 mg/kg Q2D × 5,12 days
same,Alone TGI %,[3]; PX-866 iv 12 mg/kg Q2D × 5,58%
same,Alone log cell kill,[3]; PX-866 iv 12 mg/kg Q2D × 5,0.9
same,Alone Growth delay days,[3]; PX-866 po 4 mg/kg Q2D × 5,11 days
same,Alone TGI %,[3]; PX-866 po 4 mg/kg Q2D × 5,53%
same,Alone log cell kill,[3]; PX-866 po 4 mg/kg Q2D × 5,0.82
same,Combined Growth delay days,[4]; [15],10 days
same,Combined TGI %,[4]; [15],58%
same,Combined log cell kill,[4]; [15],1.0
same,Alone Growth delay days,[4]; [16],3 days
same,Alone TGI %,[4]; [16],27%
same,Alone log cell kill,[4]; [16],0.30
same,Combined Growth delay days,[5]; [17],6 days
same,Combined TGI %,[5]; [17],56%
same,Combined log cell kill,[5]; [17],0.5
same,Combined Growth delay days,[5]; [18],8 days
same,Combined TGI %,[5]; [18],63%
same,Combined log cell kill,[5]; [18],0.7
same,Alone Growth delay days,[5]; PX-866 iv 10 mg/kg Q2D × 3,0 days
same,Alone TGI %,[5]; PX-866 iv 10 mg/kg Q2D × 3,11%
same,Alone log cell kill,[5]; PX-866 iv 10 mg/kg Q2D × 3,0.3
same,Alone Growth delay days,[5]; PX-866 po 2.5 mg/kg Q2D × 3,1 days
same,Alone TGI %,[5]; PX-866 po 2.5 mg/kg Q2D × 3,29%
same,Alone log cell kill,[5]; PX-866 po 2.5 mg/kg Q2D × 3,0.1
same,pIC50,[6],8.26
same,inhibition at 12 mg/kg,"[7]; Mus musculus, A549, iv, 120 h, read-out: inhibition of tumor phospho-Akt",51%
same,inhibition at 3 mg/kg,"[7]; Mus musculus, A549, po, 120 h, read-out: inhibition of tumor phospho-Akt",48%
same,effect upon tumor phospho-Akt,[7]; combination of gefitinib and PX-866,inhibited both
same,ALT,[8]; PX-866 1.5 mg/kg po every other day for 14 doses,65.6 ± 27.5 U/l
same,AST,[8]; [19],140.5 ± 35.2 U/l
same,Hb,[8]; [19],14.6 ± 0.3 g/dL
same,Weight change,[8]; [19],3.9 ± 0.6 g
same,ALT,[8]; PX-866 3 mg/kg po every other day for 14 doses,47.6 ± 16.8 U/l
same,AST,[8]; [20],152.0 ± 47.2 U/l
same,Hb,[8]; [20],14.7 ± 0.4 g/dL
same,LY,[8]; [20],5.2 ± 3.9 K/μl
same,MO,[8]; [20],9.2 ± 3.6 K/μl
same,Plt,[8]; [20],1665 ± 227 K/μl
same,gain in body weight as % of the control weight gain,[8]; PX-866 3 mg/kg po,28%
same,ALT,[8]; PX-866 10 mg/kg iv every other day for 14 doses,35.5 ± 11.7 U/l
same,AST,[8]; [21],105.2 ± 19.2 U/l
same,Hb,[8]; [21],14.4 ± 0.1 g/dL
same,LY,[8]; [21],1.8 ± 0.5 K/μl
same,MO,[8]; [21],1.1 ± 0.2 K/μl
same,Ne,[8]; [21],14.0 ± 2.7 K/μl
same,Plt,[8]; [21],1390 ± 43 K/μl
same,WBC,[8]; [21],14.6 ± 4.2 K/μl
same,glucose,[8]; [21],76.2 ± 3.6 mg/dL
same,gain in body weight as % of the control weight gain,[8]; PX-866 10 mg/kg iv,83%
same,"time for changes in body weight, plasma glucose and blood cell counts to return to normal after treatment stopped","[8]; scid mice, long term PX-866",≤ 9 days
same,change in any other blood elements,[9],no significant change
same,neutrophil counts,"[9]; ±S.E., n=4",3.7±1.8 K/:l
same,nonfasting glucose levels,[10],269.4 ± 27.8 mg/dL
same,antitumor activity with bevacizumab,[11],significantly increased the antitumor activity of bevacizumab
same,plasma glucose AUC0-180 min,"[12]; PX-866 3 mg/kg po QOD × 20, glucose 24 hours after the last dose",520 ± 14^a mg · min · ml^−1
same,plasma glucose AUC0-180 min,"[12]; PX-866 10 mg/kg po single dose, glucose 4 hours later, no other drug",533 ± 17^a mg · min · ml^−1
